From patent publication US20260364184A1, “COMPOUND BASED ON OXOISOINDOLINYL-SUBSTITUTED TETRAHYDROPYRIMIDINE-DIONE AND USE THEREOF” (GLUETACS THERAPEUTICS (SHANGHAI) CO., LTD., priority 2023, published 2026)

Legend:
Format in all cases: cell-based
[1] = tested on: Human T lymphocytic leukemia cell line (Jurkat); assay: Inhibition of Jurkat cell proliferation (CellTiter luminescent viability); settings: 96 hours; for inhibition at 0.01 µM / inhibition at 0.5 µM: Homo sapiens, Table IF3, AR inhibitor-based; for inhibition at 0.01 µM: 10 nM, read-out: Inhibition Rate at 10 nM (%); for inhibition at 0.5 µM: 500 nM, read-out: Inhibition Rate at 500 nM (%); for IC50: Table IA1, IRAK4 inhibitor-based, read-out: Inhibitory activity (IC50, nM) on tumor cell proliferation, Jurkat
AR = molecular target: T1, AR (Homo sapiens, UniProt P10275); assay: Western blot degradation of AR; settings: LnCap Cell; 24 hours
T1 construct: expression of target proteins in cells; endogenous in cells
T1 sequence (P10275 1-920): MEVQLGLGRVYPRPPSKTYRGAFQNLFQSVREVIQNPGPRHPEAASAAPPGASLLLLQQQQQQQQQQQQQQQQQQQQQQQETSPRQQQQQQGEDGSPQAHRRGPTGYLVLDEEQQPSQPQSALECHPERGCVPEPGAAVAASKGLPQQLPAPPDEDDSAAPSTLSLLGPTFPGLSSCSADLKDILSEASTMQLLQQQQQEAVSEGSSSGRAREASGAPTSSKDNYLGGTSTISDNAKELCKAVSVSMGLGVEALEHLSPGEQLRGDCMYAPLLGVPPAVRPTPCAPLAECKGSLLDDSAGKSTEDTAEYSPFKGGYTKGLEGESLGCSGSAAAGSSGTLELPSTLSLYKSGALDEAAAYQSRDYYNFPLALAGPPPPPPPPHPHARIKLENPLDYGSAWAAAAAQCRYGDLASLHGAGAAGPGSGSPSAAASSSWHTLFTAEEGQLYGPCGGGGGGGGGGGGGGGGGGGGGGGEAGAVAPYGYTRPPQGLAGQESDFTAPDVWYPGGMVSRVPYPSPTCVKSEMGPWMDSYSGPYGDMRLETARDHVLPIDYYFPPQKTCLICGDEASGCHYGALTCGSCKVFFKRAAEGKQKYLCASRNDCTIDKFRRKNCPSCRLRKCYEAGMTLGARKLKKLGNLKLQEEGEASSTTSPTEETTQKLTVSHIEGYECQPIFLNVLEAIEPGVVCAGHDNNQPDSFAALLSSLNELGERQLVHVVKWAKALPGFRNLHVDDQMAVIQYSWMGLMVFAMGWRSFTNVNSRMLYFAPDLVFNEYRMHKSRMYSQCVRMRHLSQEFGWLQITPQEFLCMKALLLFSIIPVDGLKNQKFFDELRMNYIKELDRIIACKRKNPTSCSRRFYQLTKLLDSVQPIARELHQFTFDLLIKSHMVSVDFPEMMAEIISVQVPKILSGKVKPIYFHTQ
Summary of the method: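 Immunoblot of drug-treated versus DMSO-treated cell lysates, with densitometric quantification. Values: DC50 (50% band loss, fitted) and loading-control-normalised % remaining or degradation.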

[2] = tested on: Human diffuse large B-cell lymphoma cell line (TMD8); assay: Inhibition of TMD8 cell proliferation (CellTiter luminescent viability); settings: Homo sapiens, TMD8, 96 h, Table IF1, AR inhibitor-based; for inhibition at 0.01 µM: TMD8, 10 nM, read-out: Inhibition Rate at 10 nM (%); for inhibition at 0.5 µM: TMD8, 500 nM, read-out: Inhibition Rate at 500 nM (%)
[3] = tested on: Human Multiple myeloma cell line (MM.1S); assay: Inhibition of MM.1S cell proliferation (CellTiter luminescent viability); settings: 96 hours; for inhibition at 0.01 µM / inhibition at 0.5 µM: Homo sapiens, MM1.S, Table IA5, IRAK4 inhibitor-based; for inhibition at 0.01 µM: 10 nM, read-out: Inhibition Rate at 10 nM (%); for inhibition at 0.5 µM: 500 nM, read-out: Inhibition Rate at 500 nM (%); for IC50: Table IA1, IRAK4 inhibitor-based, read-out: Inhibitory activity (IC50, nM) on tumor cell proliferation, MM.1S
Summary of the method: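 IC50 is fitted from luminescent viability (CellTiter-Meiluncell) curves. Nine-point, 5-fold dilution series (top stock 2000 μM) are added at 0.5 μL per 100 μL medium to cells plated the day before, with growth at 37 °C and 5% CO2.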

[4] = tested on: Human B-Cell Lymphoma Cells (RPMI-8226); assay: Inhibition of RPMI-8226 cell proliferation (CellTiter luminescent viability); settings: Table IA4, IRAK4 inhibitor-based, RPMI-8226, 500 nM, 96 hours, read-out: Inhibition Rate at 500 nM (%)

Degradation of substrate protein AR (substrate protein remaining %) (AR) | Structure (SMILES) | inhibition at 0.01 µM [2] [%] | inhibition at 0.5 µM [2] [%] | inhibition at 0.5 µM [4] [%] | further results
A (0%≤substrate protein remaining %≤80%) | CC1(C)[C@H](NC(=O)c2ccc(N3CCC(CN4CC5CCC4CN5c4ccc5c(c4)C(=O)N(N4CCC(=O)NC4=O)C5=O)CC3)nc2)C(C)(C)[C@H]1Oc1ccc(C#N)c(Cl)c1 (stereo partly shown) [GT-05834, N-((1r,3r)-3-(3-chloro-4-cyanophenoxy)-2,2,4,4-tetramethylcyclobutyl)-6-(4-((5-(2-(2,4-dioxotetrahydropyrimidin-1(2H)-yl)-1,3-dioxoisoindolin-5-yl)-2,5-diazabicyclo[2.2.2]octan-2-yl)methyl)piperidin-1-yl)nicotinamide] | 15 to 20 | 40 to 60 | – | inhibition at 0.01 µM [1]: 15 to 20%; inhibition at 0.5 µM [1]: 40 to 60%
– | O=C1CCN(N2Cc3cc(CN4CCC(n5cc(NC(=O)c6cnn7ccc(N8CCOCC8)nc67)c(C(F)F)n5)CC4)ccc3C2=O)C(=O)N1 [GT-05749] | – | – | 15 to 20 | inhibition at 0.01 µM [3]: 20 to 25%; inhibition at 0.5 µM [3]: 80 to 100%
– | O=C1CCN(N2Cc3cc(CN4CCC(n5cc(NC(=O)c6coc(-c7ccnc(NCC8CC8)c7)n6)c(C(F)F)n5)CC4)ccc3C2=O)C(=O)N1 [GT-04951, 2-(2-((cyclopropylmethyl)amino)pyridin-4-yl)-N-(3-(difluoromethyl)-1-(1-((2-(2,4-dioxotetrahydropyrimidin-1(2H)-yl)-1-oxoisoindolin-5-yl)methyl)piperidin-4-yl)-1H-pyrazol-4-yl) oxazole-4-carboxamide] | – | – | – | IC50 [3]: 10 to 50 nM; IC50 [1]: 100 to 300 nM
– | O=C1CCN(N2C(=O)c3ccc(N4C5CC4CN(C[C@H]4CC[C@H](n6cc(NC(=O)c7cnn8ccc(N9C[C@H]%10C[C@@H]9CO%10)nc78)c(C(F)F)n6)CC4)C5)cc3C2=O)C(=O)N1 [GT-05242, 5-((1R,4R)-2-oxa-5-azabicyclo[2.2.1]heptan-5-yl)-N-(3-(difluoromethyl)-1-((1r,4R)-4-((6-(2-(2,4-dioxotetrahydropyrimidin-1(2H)-yl)-1,3-dioxoisoindolin-5-yl)-3,6-diazabicyclo[3.1.1]heptan-3-yl)methyl)cyclohexyl)-1H-pyrazol-4-yl)pyrazolo[1,5-a]pyrimidine-3-carboxamide] | – | – | 30 to 40 | –
– | O=C1CCN(N2Cc3cc(CN4CCC(n5cc(NC(=O)c6cnn7ccc(N8C[C@H]9C[C@@H]8CO9)nc67)c(C(F)F)n5)CC4)ccc3C2=O)C(=O)N1 [GT-05028, 5-((1R,4R)-2-oxa-5-azabicyclo[2.2.1]heptan-5-yl)-N-(3-(difluoromethyl)-1-(1-((2-(2,4-dioxotetrahydropyrimidin-1(2H)-yl)-1-oxoisoindolin-5-yl)methyl)piperidin-4-yl)-1H-pyrazol-4-yl)pyrazolo[1,5-a]pyrimidine-3-carboxamide] | – | – | – | IC50 [3]: 10 to 50 nM; IC50 [1]: 100 to 300 nM
– | O=C1CCN(N2C(=O)c3cccc(N4CCC(CN5CCC(n6cc(NC(=O)c7cnn8ccc(N9C[C@H]%10C[C@@H]9CO%10)nc78)c(C(F)F)n6)CC5)CC4)c3C2=O)C(=O)N1 [GT-05285, 5-((1R,4R)-2-oxa-5-azabicyclo[2.2.1]heptan-5-yl)-N-(3-(difluoromethyl)-1-(1-((1-(2-(2,4-dioxotetrahydropyrimidin-1(2H)-yl)-1,3-dioxoisoindolin-4-yl)piperidin-4-yl)methyl)piperidin-4-yl)-1H-pyrazol-4-yl)pyrazolo[1,5-a]pyrimidine-3-carboxamide] | – | – | 25 to 30 | inhibition at 0.01 µM [3]: 40 to 60%; inhibition at 0.5 µM [3]: 60 to 80%
A (0%≤substrate protein remaining %≤80%) | N#Cc1ccc(O[C@H]2CC[C@H](NC(=O)c3ccc(N4CCC(CN5C[C@@H]6C[C@H]5CN6c5ccc6c(c5)C(=O)N(N5CCC(=O)NC5=O)C6=O)CC4)nn3)CC2)cc1Cl [GT-05226, N-((1r,4r)-4-(3-chloro-4-cyanophenoxy)cyclohexyl)-6-(4-(((1S,4S)-5-(2-(2,4-dioxotetrahydropyrimidin-1(2H)-yl)-1,3-dioxoisoindolin-5-yl)-2,5-diazabicyclo[2.2.1]heptan-2-yl)methyl)piperidin-1-yl)pyridazine-3-carboxamide] | 10 to 15 | 25 to 30 | – | –
– | CC(C)(O)c1cc2nc(C3CCN(Cc4ccc5c(c4)CN(N4CCC(=O)NC4=O)C5=O)CC3)oc2cc1NC(=O)c1cccc(C(F)(F)F)n1 [GT-05748, N-(2-(1-((2-(2,4-dioxotetrahydropyrimidin-1(2H)-yl)-1-oxoisoindolin-5-yl)methyl)piperidin-4-yl)-5-(2-hydroxypropan-2-yl)benzo[d]oxazol-6-yl)-6-(trifluoromethyl) picolinamide] | – | – | 15 to 20 | –
A (0%≤substrate protein remaining %≤80%) | N#Cc1ccc(O[C@H]2CC[C@H](NC(=O)c3ccc(N4CCC(CN5CC6CCC5CN6c5ccc6c(c5)C(=O)N(N5CCC(=O)NC5=O)C6=O)CC4)nn3)CC2)cc1Cl (stereo partly shown) [GT-05832, N-((1r,4r)-4-(3-chloro-4-cyanophenoxy)cyclohexyl)-6-(4-((5-(2-(2,4-dioxotetrahydropyrimidin-1(2H)-yl)-1,3-dioxoisoindolin-5-yl)-2,5-diazabicyclo[2.2.2]octan-2-yl)methyl)piperidin-1-yl)pyridazine-3-carboxamide] | 10 to 15 | 40 to 60 | – | inhibition at 0.01 µM [1]: 0 to 5%; inhibition at 0.5 µM [1]: 20 to 30%
